Assay results: ChEMBL document CHEMBL5113368, “Meroterpenoids produced by fungi: Occurrence, structural diversity, biological activities, and their molecular targets” (Eur J Med Chem, 2021)
≈ marks a conversion by molar mass, not a printed value.

Tests used:
MCF7 [1] = test: Antiproliferative activity against human MCF7 cells assessed as cell growth inhibition; type: functional, cell-based
A549 [2] = test: Antiproliferative activity against human A549 cells assessed as cell growth inhibition; type: functional, cell-based
SF-268 = test: Antiproliferative activity against human SF-268 cells assessed as cell growth inhibition; type: functional, cell-based
HepG2 = test: Antiproliferative activity against human HepG2 cells assessed as cell growth inhibition; type: functional, cell-based
KB [3] = test: Cytotoxicity against human KB cells assessed as cell growth inhibition; type: functional, cell-based
Plasmodium falciparum = test: Antimalarial activity multidrug-resistant Plasmodium falciparum K1 assessed as inhibition of parasite growth by [3H]-hypoxanthine incorporation assay; type: functional, organism-based
NCI-H187 [4] = test: Cytotoxicity against human NCI-H187 cells assessed as cell growth inhibition; type: functional, cell-based
SW480 = test: Cytotoxicity against human SW480 cells assessed as cell growth inhibition measured after 48 hrs by CCK-8 assay; type: functional, cell-based; conditions: SW480, 48 h
HeLa [5] = test: Cytotoxicity against human HeLa cells assessed as cell growth inhibition measured after 48 hrs by CCK-8 assay; type: functional, cell-based
[6] = Toxicity in brine shrimp assessed as induction of lethality; conditions: artemia salina; read-out: LD50 (the source's name)
Beta-secretase 1 = Beta-secretase 1 (Homo sapiens, UniProt P56817); test: Inhibition of BACE1 (unknown origin) using […] incubated in dark for 1 hr by fluorescence based analysis
Beta-secretase 1, sequence (P56817 whole entry): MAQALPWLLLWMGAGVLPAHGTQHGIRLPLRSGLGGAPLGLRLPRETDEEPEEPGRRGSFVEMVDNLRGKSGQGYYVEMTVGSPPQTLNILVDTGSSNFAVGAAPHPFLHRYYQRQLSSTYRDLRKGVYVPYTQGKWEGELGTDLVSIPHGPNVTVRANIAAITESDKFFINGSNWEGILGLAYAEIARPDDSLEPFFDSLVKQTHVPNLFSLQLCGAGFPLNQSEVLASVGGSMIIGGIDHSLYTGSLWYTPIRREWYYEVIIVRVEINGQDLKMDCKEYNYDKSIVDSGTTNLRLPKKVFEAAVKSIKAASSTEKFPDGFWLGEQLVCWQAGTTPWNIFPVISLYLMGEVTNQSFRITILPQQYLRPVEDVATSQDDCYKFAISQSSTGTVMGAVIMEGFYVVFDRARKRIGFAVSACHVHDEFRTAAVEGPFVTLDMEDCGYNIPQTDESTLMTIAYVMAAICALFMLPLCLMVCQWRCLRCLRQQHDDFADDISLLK

[7] = test system: Mycobacterium tuberculosis; test: Antimycobacterial activity against Mycobacterium tuberculosis H37Ra assessed as inhibition of bacterial growth by microplate alamar blue assay; type: functional
HL-60 = test: Cytotoxicity against human HL-60 cells assessed as cell growth inhibition measured after 48 hrs by MTT assay; type: functional, cell-based; conditions: HL-60, 48 h
[8] = Inhibition of rat intestinal sucrase
[9] = Inhibition of rat intestinal alpha-glucosidase
[10] = Inhibition of rat intestinal maltase
Verticillium dahliae = test: Antifungal activity Verticillium dahliae assessed as inhibition of fungal growth by microbroth dilution method; type: functional
Phytophthora nicotianae = test: Antifungal activity Phytophthora parasitica assessed as inhibition of fungal growth by microbroth dilution method; type: functional
Bacillus subtilis = test: Antibacterial activity against Bacillus subtilis assessed as reduction in microbial growth by modified broth dilution test; type: functional
Suid alphaherpesvirus 1 = test: Antiviral activity against pseudorabies virus assessed as inhibition of viral growth; type: functional, organism-based
[11] = Antioxidant activity assessed as ABTS radical scavenging activity; type: functional
[12] = Antioxidant activity assessed as DPPH radical scavenging activity; type: functional
Salmonella typhi = test: Antibacterial activity against Salmonella typhi assessed as reduction in microbial growth by modified broth dilution test; type: functional, Salmonella enterica subsp. enterica serovar Typhi; conditions: Salmonella enterica
Fusarium graminearum = test: Antifungal activity Fusarium graminearum assessed as inhibition of fungal growth by microbroth dilution method; type: functional
BC1 cell line = test: Cytotoxicity against human BC1 cells assessed as cell growth inhibition by colorimetric method; type: functional, cell-based
KB [13] = test: Cytotoxicity against human KB cells assessed as cell growth inhibition by colorimetric method; type: functional, cell-based
NCI-H187 [14] = test: Cytotoxicity against human NCI-H187 cells assessed as cell growth inhibition by colorimetric method; type: functional, cell-based
SGC-7901 = test: Cytotoxicity against human SGC-7901 cells assessed as cell growth inhibition measured after 48 hrs by MTT assay; type: functional, cell-based; conditions: SGC-7901, 48 h
HeLa [15] = test: Cytotoxicity against human HeLa cells assessed as cell growth inhibition measured after 48 hrs by MTT assay; type: functional, cell-based
[16] = test system: Clavibacter michiganensis subsp. sepedonicus; test: Antibacterial activity against Clavibacter michiganensis subsp. sepedonicus assessed as inhibition of bacterial growth measured after 18 to 48 hrs; type: functional; conditions: time 18-48 hrs
[17] = Cytotoxicity against rat IEC-6 cells assessed as cell growth inhibition by WST-1 assay; type: toxicity, cell-based
RAW264.7 = test: Antiinflammatory activity in mouse RAW264.7 cells assessed as decrease in LPS-induced IL-6 expression at 40 uM preincubated for 2 hrs followed by LPS-stimulation for 22 hrs by ELISA analysis relative to control; type: functional; conditions: time 24 hrs
[18] = biological target: T1, Prostaglandin G/H synthase 2 (Homo sapiens, UniProt P35354); test: Inhibition of human recombinant COX-2 pretreated with compound for 10 mins followed by substrate addition for 10 mins by fluorescent inhibitor screening assay
T1 sequence (P35354 whole entry): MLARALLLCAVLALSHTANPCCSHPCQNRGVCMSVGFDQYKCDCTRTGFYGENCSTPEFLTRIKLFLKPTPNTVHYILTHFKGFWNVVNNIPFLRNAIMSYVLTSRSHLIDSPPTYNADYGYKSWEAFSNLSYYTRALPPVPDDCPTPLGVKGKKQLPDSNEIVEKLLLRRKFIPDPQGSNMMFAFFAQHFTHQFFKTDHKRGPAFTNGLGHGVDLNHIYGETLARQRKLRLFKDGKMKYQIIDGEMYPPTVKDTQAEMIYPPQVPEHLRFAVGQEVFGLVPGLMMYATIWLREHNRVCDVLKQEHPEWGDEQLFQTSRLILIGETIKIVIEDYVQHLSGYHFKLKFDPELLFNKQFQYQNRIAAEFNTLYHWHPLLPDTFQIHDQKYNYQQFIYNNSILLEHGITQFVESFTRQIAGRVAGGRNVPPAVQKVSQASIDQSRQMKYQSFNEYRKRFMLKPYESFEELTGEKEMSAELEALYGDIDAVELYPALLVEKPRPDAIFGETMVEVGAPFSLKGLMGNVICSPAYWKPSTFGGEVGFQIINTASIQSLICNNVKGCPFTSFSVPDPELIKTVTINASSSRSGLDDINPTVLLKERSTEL

A549 [19] = test: Cytotoxicity against human A549 cells assessed as cell growth inhibition by CCK-8 method; type: functional, cell-based
MCF7 [20] = test: Cytotoxicity against human MCF7 cells assessed as cell growth inhibition measured after 96 hrs by MTT assay; type: functional, cell-based; conditions: MCF7, 96 h
[21] = test system: Human immunodeficiency virus 1; test: Antiviral activity against HIV1 VSV-G pseudotyped virus infected in human SUP-T1 cells infected using supernatant of virus-producing 293T cells incubated for 48 hrs by firefly luciferase assay; type: functional, organism-based; conditions: Human immunodeficiency virus 1, SUP-T1, 48 h
MGC-803 = test: Cytotoxicity against human MGC-803 cells assessed as cell growth inhibition measured after 72 hrs by MTT assay; type: functional

Q: For `COC(=O)/C=C1\O[C@@]2(C)C/C=C/C(C)(C)C[C@@H]3Cc4c(C)cc(=O)c(O)cc4O[C@]3(C)[C@H](O)C[C@@H]2C[C@@]12OC(=O)C=C2C`, which IC50 (MCF7 [1]) is on record?
A: 0.5 µM

Q: And the IC50 (A549 [2])?
A: 0.5 µM

Q: What about the IC50 (SF-268) of the same compound?
A: 0.5 µM

Q: What about the IC50 (HepG2) of the same compound?
A: 0.5 µM

Q: For `CC(=O)O[C@H]1C[C@@H](OC(C)=O)[C@@]2(C)[C@@H](CC[C@]3(C)[C@@H]2CC[C@]2(C)Oc4oc(C)cc(=O)c4C[C@@H]32)C1(C)C`, which IC50 (KB [3]) is on record?
A: 32.7 µM

Q: And the IC50 (Plasmodium falciparum)?
A: 6.67 µM

Q: And the IC50 (NCI-H187 [4])?
A: 32.7 µM

Q: What does the source list for `C[C@]1(O)C=Cc2cc(C(=O)O)ccc2OC1`?
A: IC50 (SW480): 16.3 µM; IC50 (HeLa [5]): 38.6 µM

Q: With `C=C(C)[C@H]1O[C@H]2CC[C@@]3(C)[C@@](O)(CC[C@@]4(O)[C@@H]5OC(C)(C)[C@H]6C[C@@H]7C(=C)Cc8ccc9[nH]c(c5c9c8[C@@]76O)[C@]34C)[C@]23O[C@@H]3[C@H]1O` as the compound, how does the LC50 [6] read?
A: 4.6 µM

Q: With `C=C1[C@@]23C(=O)O[C@H](C)[C@@]2(O)C(=O)O[C@]1(C)[C@@H](O)C1=C2CO[C@H]4CC(=O)OC(C)(C)[C@@]24CC[C@@]13C` as the compound, how does the IC50 (Beta-secretase 1) read?
A: 0.078 µM

Q: With `CC(=O)O[C@H]1C[C@@H](O)[C@@]2(C)[C@@H](CC[C@]3(C)[C@@H]2CC[C@]2(C)Oc4oc(C)cc(=O)c4C[C@@H]32)C1(C)C` as the compound, how does the IC50 (KB [3]) read?
A: 32.7 µM

Q: What about the MIC [7] of the same compound?
A: 26.4 µM (≈ 12.5 µg/mL)

Q: And the IC50 (NCI-H187 [4])?
A: 32.7 µM

Q: With `CC1=C[C@H]2c3c(O)cc(C)c(C(=O)O)c3OC(C)(C)[C@H]2CC1` (relative stereo) as the compound, how does the IC50 (HL-60) read?
A: 24.1 µM

Q: Which IC50 [8] does the source give for `C/C(=C\CC/C(=C/Cc1cc(O)ccc1O)C(=O)O)CC[C@@H](O)C(C)(C)O` here?
A: 14.6 µM

Q: What about the IC50 [9] of the same compound?
A: 18.1 µM

Q: What about the IC50 [10] of the same compound?
A: 11.1 µM

Q: With `Cc1oc(=O)c2c(c1C)O[C@]1(C)[C@H](O)C(=O)[C@]3(O)C(C)(C)C(=O)C[C@@]3(O)[C@H](C)[C@H]1C2` as the compound, how does the MIC (Verticillium dahliae) read?
A: 12.5 µg/mL

Q: And the MIC (Phytophthora nicotianae)?
A: 12.5 µg/mL

Q: And the MIC (Bacillus subtilis)?
A: 12.5 µg/mL

Q: With `C=C(C)[C@H]1O[C@H]2CC[C@@]3(C)[C@@](O)(CC[C@@]4(O)[C@@H]5OC(C)(C)[C@H]6C[C@@H]7C(=C)Cc8c(Cl)cc9[nH]c(c5c9c8[C@@]76O)[C@]34C)[C@]23O[C@@H]3[C@H]1O` as the compound, how does the LC50 [6] read?
A: 3.2 µM

Q: For `C[C@@H]1Cc2c3c(cc(O)c2C(=O)O1)O[C@]1(C)CCC[C@](C)([C@H]2C[C@@H](O)C2(C)C)[C@H]1C3`, which EC50 (Suid alphaherpesvirus 1) is on record?
A: 3.35 µM

Q: What does the source list for `C/C(=C\CCC1=CC(c2cc(O)ccc2O)OC1=O)C(=O)O` (stereo not given)?
A: IC50 [11]: 31.2 µM; IC50 [12]: 65.4 µM

Q: With `Cc1oc(=O)c2c(c1C)O[C@]1(C)[C@H](O)[C@@H]3O[C@](O)(CC[C@H](C)[C@H]1C2)C(C)(C)C3=O` as the compound, how does the MIC (Salmonella typhi) read?
A: 12.5 µg/mL

Q: What about the MIC (Fusarium graminearum) of the same compound?
A: 12.5 µg/mL

Q: For `Cc1cc2c(c(=O)o1)C[C@H]1[C@]3(C)CC[C@H]4C(C)(C)[C@@H](O)CC[C@]4(C)[C@H]3CC[C@]1(C)O2`, which IC50 (BC1 cell line) is on record?
A: 8.7 µg/mL (≈ 21 µM)

Q: What about the IC50 (KB [13]) of the same compound?
A: 2.9 µg/mL (≈ 6.99 µM)

Q: And the IC50 (NCI-H187 [14])?
A: 9.8 µg/mL (≈ 23.6 µM)

Q: Which IC50 (SGC-7901) does the source give for `COc1ccc(O)c2c1[C@@H]1C=C(CC/C=C(/C)C2)C(=O)O1` here?
A: 14.5 µM

Q: And the IC50 (HeLa [15])?
A: 23.5 µM

Q: For `CC1=CC[C@H]2C(C)(C)C(=O)CC[C@]2(C)[C@H]1C[C@@]12O[C@@H]1[C@H](O)C(CO)=C[C@H]2O`, which MIC [16] is on record?
A: 9.48 µg/mL (≈ 25.2 µM)

Q: For `C=C1[C@@]2(C)C[C@H]3C(=C)[C@]4(C=CC(=O)OC4(C)C)CC[C@]3(C)[C@@]13C(=O)O[C@@H](C)[C@@]3(O)C2=O`, which IC50 [17] is on record?
A: 2.52 µg/mL (≈ 5.91 µM)

Q: Which inhibition at 40 µM (RAW264.7) does the source give for `Cc1oc(=O)c2c(c1C)O[C@@]1(C)[C@@H]([C@@H](C)[C@]3(O)CC(=O)C(C)(C)C(=O)[C@@]3(O)[C@H]1O)[C@H]2O` here?
A: 69%

Q: Which IC50 [18] does the source give for `CC(C)=CCC/C(C)=C/CCC1=C[C@]2(OC1=O)c1cc(O)ccc1OC(=O)[C@]2(CC/C=C(\C)CCC=C(C)C)CC(=O)c1cc(O)ccc1O` (racemic) here?
A: 1.29 µM

Q: And the IC50 (A549 [19])?
A: 7.14 µM

Q: Which IC50 (MCF7 [20]) does the source give for `CC(C)=CC[C@H]1C(=O)C2=C(CO[C@@H]2CCO)[C@@H](O)[C@H]1O` here?
A: 4.2 µM

Q: Which IC50 [21] does the source give for `C/C=C/C=C/C1=C(CO)[C@@H](O)[C@@H](O)[C@@H](CC=C(C)C)C1=O` here?
A: 18 µM

Q: For `CC(=O)OC[C@@]1(C)[C@@H]2C[C@H](OC(C)=O)[C@@]3(C)Oc4cc(-c5ccccc5)oc(=O)c4[C@H](O)[C@@H]3[C@@]2(C)C=C[C@@H]1O`, which CC50 (MGC-803) is on record?
A: 19.1 µM
